According to article PMC11576293, “New series of 4,6-diaryl pyrimidines: facile synthesis and antiproliferative activity as dual EGFR/VEGFR-2 inhibitors” (Frontiers in Chemistry, 2024):

Experiments:
[1] = Cell viability assay (MTT) on normal cells; assay type: cell-based; conditions: human, MCF-10A normal mammary gland epithelial cells, 4 days incubation
Procedure: (§1) This experiment examines the impact of the newly developed compounds 9–29 on normal cell lines to assess their safety level. The vitality of the investigated compounds was assessed using the MCF-10 A cell line, a normal human mammary gland epithelial cell line. Following 4 days of incubation on MCF-10 A cells with each examined compound at a concentration of 50 μM, the vitality of the cells was assessed using the MTT test ([Mahmoud et al., 2022]; [Mekheimer et al., 2022]).
as §1, with “The viability” for “The vitality”, “of 9–29” for “of the investigated compounds”, “2022]). Refer to Supplementary Material A1 for more details. […]” for “2022]).”
4.2. Biological evaluation
4.2.1. Cytotoxic activity using MTT Assay and evaluation of IC50
MTT assay was carried out to study the effect of compounds on mammary epithelial cells (MCF-10A). The medium in which cells were propagated contained Dulbecco's modified Eagle's medium (DMEM)/ Ham's F-12 medium (1:1) supplemented with epidermal growth factor (20 ng/mL), hydrocortisone (500 ng/mL), insulin (10 μg/mL), 2 mM glutamine and 10% foetal calf serum.
After every 2-3 days, the cells were passaged using trypsin ethylenediamine tetra acetic acid (EDTA). The cells were seeded at a density of 10^4 cells mL-1 in flat-bottomed culture plates containing 96 wells each. After 24 h, medium was removed from the plates and the compounds in (in 0.1% DMSO) were added (in 200 μL medium to yield a final concentration of 0.1% v/v) to the wells of plates. A single compound was designated with four wells followed by incubation of plates for 96h at 37°C. After incubation, medium was removed completely from the plates followed by addition of MTT (0.4 mg/mL in medium) to each well and subsequent incubation of plates for 3h. MTT (along with the medium) was removed and DMSO (150μL) was added to each well of the culture plates, followed by vertexing and subsequent measurement of absorbance (at 540 nm) using microplate reader. The data are shown as percentage inhibition of proliferation in comparison with controls containing 0.1% DMSO. […]

A-549 = experiment: Antiproliferative assay (MTT); assay type: cell-based; conditions: Homo sapiens, A549, A-549 (lung), read-out: Antiproliferative activity IC50 ± SEM, A-549
From the text: (§2) The MTT test was employed for this investigation ([Hisham et al., 2022]; [El-Sherief et al., 2019]; [Ramadan et al., 2020]). Table 2 presents the four cancer cell lines’ median inhibitory concentration (IC50) and GI50 (average IC50) values.
(§3) The MTT test was employed for this investigation ([Hisham et al., 2022]; [El-Sherief et al., 2019]; [Ramadan et al., 2020]). The IC50 values were derived from dose-response tests. The reported data are derived from at least two independent studies, each comprising three replicates per concentration. See Supplementary Material A1 for more details.
(§4) (in 0.1% DMSO) were added (in 200 μL medium to yield a final concentration of 0.1% v/v) to the wells of plates. A single compound was designated with four wells followed by incubation of plates for 96h at 37°C. After incubation, medium was removed completely from the plates followed by addition of MTT (0.4 mg/mL in medium) to each well and subsequent incubation of plates for 3h. MTT (along with the medium) was removed and DMSO (150μL) was added to each well of the culture plates, followed by vertexing and subsequent measurement of absorbance (at 540 nm) using microplate reader. The data are shown as percentage inhibition of proliferation in comparison with controls containing 0.1% DMSO.
(§5) 4.2.1.2. Assay for antiproliferative effect […]
(§6) (10%) and 1 µg/mL each of aprotinin, leupeptin and pepstatin for 120 min. The purification was performed either at 4 °C or on ice. To record autophosphorylation level, EGFR kinase assay was carried out on the basis of DELFIA/Time-Resolved Fluorometry. The compounds were first
(§7) (1 picture or pasted object on this page, not shown here)

HT-29 = experiment: Antiproliferative assay (MTT); assay type: cell-based; conditions: Homo sapiens, HT-29 (colon), read-out: Antiproliferative activity IC50 ± SEM, HT-29
From the text: as §2, §3, §4, §5, §6, §7

MCF-7 = experiment: Antiproliferative assay (MTT); assay type: cell-based; conditions: Homo sapiens, MCF7, MCF-7 (breast), read-out: Antiproliferative activity IC50 ± SEM, MCF-7
From the text: as §2, §3, §4, §5, §6, §7

Panc-1 = experiment: Antiproliferative assay (MTT); assay type: cell-based; conditions: Homo sapiens, Panc-1 (pancreatic), read-out: Antiproliferative activity IC50 ± SEM, Panc-1
From the text: as §2, §3, §4, §5, §6, §7

[2] = tested on: four cancer cell lines (A-549, MCF-7, Panc-1, HT-29); experiment: Antiproliferative assay, average over four cancer cell lines; assay type: cell-based; conditions: Homo sapiens; average of the four cancer cell lines; read-out: Average IC50 (GI50)
From the text: Table 2 presents the four cancer cell lines’ median inhibitory concentration (IC50) and GI50 (average IC50) values.
The IC50 values were derived from dose-response tests. The reported data are derived from at least two independent studies, each comprising three replicates per concentration. See Supplementary Material A1 for more details.

Bax = Bax activation assay; assay type: cell-based, human; conditions: for Bax Conc: A-549 cancer cells
Procedure: 4.2.7. Bax activation assay
Bring all reagents, except the human Bax-α Standard, to room temperature for at least 30 minutes prior to opening. The human Bax-α Standard solution should not be left at room temperature for more than 10 minutes. All standards, controls and samples should be run in duplicate. Refer to the Assay Layout Sheet to determine the number of wells to be used and put any remaining wells with the desiccant back into the pouch and seal the ziploc. Store unused wells at 4 °C. Pipet 100 μL of Assay Buffer into the S0 (0 pg/mL standard) wells. Pipet 100 μL of Standards #1 through #6 into the appropriate wells. Pipet 100 μL of the Samples into the appropriate wells. Tap the plate gently to mix the contents. Seal the plate and incubate at room temperature on a plate shaker for 1 hour at ~500 rpm. Empty the contents of the wells and wash by adding 400 μL of wash solution to every well. Repeat the wash 4 more times for a total of 5 washes. After the final wash, empty or aspirate the wells and firmly tap the plate on a lint free paper towel to remove any remaining wash buffer.
Pipet 100 μL of yellow Antibody into each well, except the Blank. Seal the plate and incubate at room temperature on a plate shaker for 1 hour at ~500 rpm. Empty the contents of the wells and wash by adding 400 μL of wash solution to every well. Repeat the wash 4 more times for a total of 5 washes. After the final wash, empty or aspirate the wells and firmly tap the plate on a lint free paper towel to remove any remaining wash buffer. Add 100 μL of blue Conjugate to each well, except the Blank. Seal the plate and incubate at room temperature on a plate shaker for 30 minutes […]
Pipet 100 μL of Substrate Solution into each well. Incubate for 30 minutes at room temperature on a plate shaker at ~500 rpm. Pipet 100 μL Stop Solution to each well. Blank the plate reader against the Blank wells, read the optical density at 450 nm. Calculate the average net Optical Density (OD) bound for each standard and sample by subtracting the average Blank OD from the average OD for each standard and sample. Using linear graph paper, plot the Average Net OD for each standard versus Bax concentration in each standard. Approximate a straight line through the points.
The concentration of Bax in the unknowns can be determined by interpolation. […]

Bcl-2 = Bcl-2 inhibition assay; assay type: cell-based, human; conditions: A-549 cell line
Procedure: 4.2.8. Bcl-2 inhibition assay
Mix all reagents thoroughly without foaming before use. Wash the microwells twice with approximately 300 μL Wash Buffer per well with thorough aspiration of microwell contents between washes. Take caution not to scratch the surface of the microwells. After the last wash, empty the wells and tap microwell strips on absorbent pad or paper towel to remove excess Wash Buffer. Use the microwell strips immediately after washing or place upside down on a wet absorbent paper for not longer than 15 minutes. […] Add 100 μL of Sample […]
Diluent in duplicate to all standard wells and to the blank wells. Prepare standard (1:2 dilution) in duplicate ranging from 32 ng/mL to 0.5 ng/mL. Add 100 μL of Sample Diluent, in duplicate, to the blank wells. Add 80 μL of Sample Diluent, in duplicate, to the sample wells. Add 20 μL of each Sample, in duplicate, to the designated wells. Add 50 μL of diluted biotin-conjugate to all wells, including the blank wells. Cover with a plate cover and incubate at room temperature, on a microplate shaker at 100 rpm if available, for 2 hours. Remove plate cover and empty the wells.
Wash microwell strips 3 times as described in step 2. Add 100 μL of diluted Streptavidin-HRP to all wells, including the blank wells. Cover with a plate cover and incubate at room temperature, on a microplate shaker at 100 rpm if available, for 1 hour. Remove plate cover and empty the wells.
Wash microwell strips 3 times as described in step 2. Proceed to the next step. Pipette 100 μl of mixed TMB Substrate Solution to all wells, including the blanks. Incubate the microwell strips at room temperature (18° to 25°C) for about 15 minutes, if available on a rotator set at 100 rpm.
Avoid direct exposure to intense light. The point, at which the substrate reaction is stopped, is often determined by the ELISA reader. Many ELISA readers record absorbance only up to 2.0
O.D. Therefore, the color development within individual microwells must be watched by the person running the assay and the substrate reaction stopped before positive wells are no longer properly detectable. Stop the enzyme reaction by quickly pipetting 100 μL of Stop Solution into each well, including the blank wells. It is important that the Stop Solution is spread quickly and uniformly throughout the microwells to completely inactivate the enzyme. Results must be read immediately after the Stop Solution is added or within one hour i f the microwell strips are stored at 2 - 8°C in the dark. Read absorbance of each microwell on a spectrophotometer using 450 nm as the primary wavelength.

Compound: COc1ccc(-c2cc(-c3cccc(OC)c3)nc(SCc3ccccc3)n2)cc1 [Compound 21, 2-(Benzylthio)-6-(3-methoxyphenyl)-4-(4-methoxyphenyl)pyrimidine]
- viability at 4 days, 50 µM [1]: 89%
- IC50 (A-549): 83 ± 7 nM
- IC50 (HT-29): 82 ± 8 nM
- IC50 (MCF-7): 86 ± 8 nM
- IC50 (Panc-1): 82 ± 8 nM
- IC50 [2]: 83 nM
- melting point: 245 to 247 °C

Compound: C#Cc1cccc(Nc2ncnc3cc(OCCOC)c(OCCOC)cc23)c1 [Erlotinib, reference compound]
- IC50 (A-549): 30 ± 3 nM
- IC50 (HT-29): 30 ± 3 nM
- IC50 (MCF-7): 40 ± 3 nM
- IC50 (Panc-1): 30 ± 3 nM

Compound: CN[C@@H]1C[C@H]2O[C@@](C)([C@@H]1OC)n1c3ccccc3c3c4c(c5c6ccccc6n2c5c31)C(=O)NC4 [Staurosporine, reference compound]
- Bax Conc (Bax): 280 ± 5 pg/mL
- Bax Conc (Bax; listed as staurosporine): 280 pg/mL
- Bax Fold change (Bax; compared to untreated A-549 cancer cells): 35 fold
- Bcl-2 Conc (Bcl-2): 1.10 ng/mL
- Bcl-2 Fold reduction (Bcl-2; versus control): 5 fold
